Reference: patent US9247759B2, “Identification of human T2R receptors that respond to bitter compounds that elicit the bitter taste in compositions, and the use thereof in assays to identify compounds that inhibit (block) bitter taste in compositions and use thereof” (SENOMYX, INC., priority 2007, dated 2016)

The molecules below were run against hT2R8 (Homo sapiens (Human), UniProt Q9NYW2) (assay: hT2R8 antagonist high-throughput FLIPR assay, stable cell line with G16g44, agonist andrographolide). Conditions: Table A; read-out: hT2R8 IC50.
Chain of hT2R8 (Q9NYW2 whole entry): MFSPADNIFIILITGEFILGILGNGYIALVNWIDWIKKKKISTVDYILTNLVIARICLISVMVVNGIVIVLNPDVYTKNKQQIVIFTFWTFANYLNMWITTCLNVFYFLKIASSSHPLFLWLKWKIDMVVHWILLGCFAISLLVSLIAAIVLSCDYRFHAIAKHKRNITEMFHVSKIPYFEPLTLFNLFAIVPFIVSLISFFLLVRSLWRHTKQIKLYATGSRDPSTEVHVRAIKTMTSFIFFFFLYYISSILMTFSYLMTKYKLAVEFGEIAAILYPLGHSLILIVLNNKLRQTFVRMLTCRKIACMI
Assay type: cell-based
In short: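 Antagonist screen: compounds co-applied with agonist andrographolide at 200 μM, a dose giving 70–80% of maximal hT2R8 activation. Fluorescence measured by FLIPR in a stable HEK293 line expressing both hT2R8 and the promiscuous G16g44 protein.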

Structure (SMILES)	IC50 [µM]
Cc1noc(C)c1Cn1cc(NC(=S)Nc2cccnc2)cn1 [Example 4-107, 1-(1-((3,5-dimethylisoxazol-4-yl)methyl)-1H-pyrazol-4-yl)-3-(pyridin-3-yl)thiourea]	3
COC(C(=O)Nc1cnn(Cc2c(C)noc2C)c1)c1ccccc1 (stereo not shown) [Example 4-43, N-(1-((3,5-dimethylisoxazol-4-yl)methyl)-1H-pyrazol-4-yl)-2-methoxy-2-phenylacetamide]	3.43

Same assay, conditions: table after Example 10-97; read-out: hT2R8 IC50

Structure (SMILES)	IC50 [µM]
Cc1noc(C)c1Cn1cc(N2C(=O)CN(Cc3cccc(CN(C)C)c3)C2=O)cn1 [Example 10-37, 1-(3-((dimethylamino)methyl)benzyl)-3-(1-((3,5-dimethylisoxazol-4-yl)methyl)-1H-pyrazol-4-yl)imidazolidine-2,4-dione]	1.22

Same assay, conditions: unit uM; read-out: IC50 on hT2R08 bitter receptor

Structure (SMILES)	IC50 [µM]
Cc1noc(C)c1Cn1cc(N2C(=O)CN(Cc3cccc(CN(C)C)c3)C2=O)cn1 [Example 10-37, 1-(3-((dimethylamino)methyl)benzyl)-3-(1-((3,5-dimethylisoxazol-4-yl)methyl)-1H-pyrazol-4-yl)imidazolidine-2,4-dione]	1.2

The molecules below were run against hT2R14 (Homo sapiens (Human), UniProt Q9NYV8) (assay: hT2R14 antagonist high-throughput FLIPR assay, stable cell line with G16g44, agonist aristolochic acid). Conditions: Table C; read-out: hT2R14 IC50.
Chain of hT2R14 (Q9NYV8 whole entry): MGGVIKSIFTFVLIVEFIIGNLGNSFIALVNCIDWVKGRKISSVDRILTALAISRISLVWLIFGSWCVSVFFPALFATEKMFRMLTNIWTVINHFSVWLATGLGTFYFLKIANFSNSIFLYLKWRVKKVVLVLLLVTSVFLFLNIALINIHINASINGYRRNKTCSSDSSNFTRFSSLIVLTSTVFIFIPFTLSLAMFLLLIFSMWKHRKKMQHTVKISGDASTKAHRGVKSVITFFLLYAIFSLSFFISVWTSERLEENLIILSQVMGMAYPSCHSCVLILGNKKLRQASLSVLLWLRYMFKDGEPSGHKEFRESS
Assay type: cell-based
Procedure: The inventors also used the automated fluorimetric […] system FLIPR using a slightly different protocol. A HEK293 cell line stably expressing G16gust44 was transfected with a hT2R expression plasmid, 24 hours later, the cells are loaded and analyzed on FLIPR.
After a ligand is identified for a particular hT2R, a HEK293 cell line stably expressing both the hT2R and G16gust44 are generated, facilitating future screening assays to identify other ligands that activate the particular hT2R or which modulate (block or enhance) the activation of this hT2R by another bitter ligand such as a bitter compound contained in coffee. This avoids the need for transient transfection.
To identify antagonists, cell lines stably expressing hT2R8 and hT2R14, respectively, together with the promiscuous chimeric G16g44 protein were generated as described in previous patent applications. A high-throughput assay was established using the stable cell lines and FLIPR (Fluorescent Imaging Plate Reader). An agonist of hT2R8 or hT2R14 was used to activate the receptors up to 70-80% of their respective maximal activity. For hT2R8, the agonist used was andrographolide (200 […]); for hT2R14, it was aristolochic acid (3 μM). To identify antagonists, compounds with diverse chemical structures were added together with the agonist.

Structure (SMILES)	IC50 [nM]
COc1ccc(CN(Cc2ccccc2Cl)S(=O)(=O)c2ccc(C(=O)O)cc2)cc1 [Example 5-130, 4-(N-(2-chlorobenzyl)-N-(4-methoxybenzyl)sulfamoyl)benzoic acid]	7040
Cc1ccc(CN(Cc2ccccc2)S(=O)(=O)c2ccc(C(=O)O)cc2)cc1 [Example 5-132, 4-(N-benzyl-N-(4-methylbenzyl)sulfamoyl)benzoic acid]	5390
COc1ccc2c(c1)CCN(S(=O)(=O)c1ccc(C(=O)O)cc1)C2c1ccccc1 (stereo not shown) [Example 5-162, 4-(6-methoxy-1-phenyl-3,4-dihydroisoquinolin-2(1H)-ylsulfonyl)benzoic acid]	9620
O=C(O)c1ccc(S(=O)(=O)N(Cc2ccccc2)Cc2cccc(Cl)c2)cc1 [Example 5-142, 4-(N-benzyl-N-(3-chlorobenzyl)sulfamoyl)benzoic acid]	4290
COc1ccccc1CN(Cc1ccccc1)S(=O)(=O)c1ccc(C(=O)O)cc1 [Example 5-133, 4-(N-benzyl-N-(2-methoxybenzyl)sulfamoyl)benzoic acid]	5060
O=C(O)c1ccc(S(=O)(=O)N(Cc2ccccc2)Cc2cccc(F)c2)cc1 [Example 5-139, 4-(N-benzyl-N-(3-fluorobenzyl)sulfamoyl)benzoic acid]	2310
O=C(O)c1ccc(S(=O)(=O)N(Cc2ccccc2)Cc2ccccc2Cl)cc1 [Example 5-141, 4-(N-benzyl-N-(2-chlorobenzyl)sulfamoyl)benzoic acid]	4490
COc1ccc(CN(CC2CCC(C(=O)O)CC2)C(=S)Nc2ccccc2OC)cc1 (stereo not shown) [Example 5-112, 4-((1-(4-methoxybenzyl)-3-(2-methoxyphenyl)thioureido)methyl) cyclohexanecarboxylic acid]	8850
COc1ccc(CN(Cc2ccc(F)cc2F)S(=O)(=O)c2ccc(C(=O)O)cc2)cc1 [Example 5-160, 4-(N-(2,4-difluorobenzyl)-N-(4-methoxybenzyl)sulfamoyl)benzoic acid]	1260
COc1ccc(CN(Cc2ccccc2)S(=O)(=O)c2cccc(OC)c2)cc1 [Example 5-122, N-benzyl-3-methoxy-N-(4-methoxybenzyl)benzenesulfonamide]	2220
CCOC(=O)C1CCC(CN(Cc2ccccc2)S(=O)(=O)c2ccc(Cl)cc2)CC1 (stereo not shown) [Example 5-119, ethyl 4-((N-benzyl-4-chlorophenylsulfonamido)methyl) cyclohexanecarboxylate]	672
O=C(O)c1ccc(CN(Cc2ccccc2)S(=O)(=O)c2ccc(Cl)cc2)cc1 [Example 5-120, 4-((N-benzyl-4-chlorophenylsulfonamido)methyl)benzoic acid]	394
COc1ccc(C2Cc3ccccc3CN2S(=O)(=O)c2ccc(C(=O)O)cc2)cc1 (stereo not shown) [Example 5-161, 4-(3-(4-methoxyphenyl)-3,4-dihydroisoquinolin-2(1H)-ylsulfonyl)benzoic acid]	6270
O=C(O)c1ccc(S(=O)(=O)N(Cc2ccccc2)Cc2ccc(F)cc2)cc1 [Example 5-131, 4-(N-benzyl-N-(4-fluorobenzyl)sulfamoyl)benzoic acid]	8280
O=C(O)c1ccc(S(=O)(=O)N(Cc2ccccc2)Cc2ccccc2F)cc1 [Example 5-134, 4-(N-benzyl-N-(2-fluorobenzyl)sulfamoyl)benzoic acid]	6160
CCOC(=O)C1CCC(CN(Cc2ccccc2)S(=O)(=O)c2ccc(Br)cc2)CC1 (stereo not shown) [Example 5-118, ethyl 4-((N-benzyl-4-bromophenylsulfonamido)methyl) cyclohexanecarboxylate]	2340
CC(=O)Nc1ccc(S(=O)(=O)N(Cc2ccc(F)cc2)CC2CCC(C(=O)O)CC2)cc1 (stereo not shown) [Example 5-124, 4-((4-acetamido-N-(4-fluorobenzyl)phenylsulfonamido)methyl) cyclohexanecarboxylic acid]	842

Same assay, conditions: Table D; read-out: hT2R14 IC50

Structure (SMILES)	IC50 [nM]
CCc1nc(SCC(=O)N2CCC(C)CC2)c2c(=O)n(C)c(=O)n(C)c2n1 [Example 6-26, 7-ethyl-1,3-dimethyl-5-(2-(4-methylpiperidin-1-yl)-2-oxoethylthio)pyrimido[4,5-d]pyrimidine-2,4(1H,3H)-dione]	721
Cn1c(=O)c2c(SCC(=O)N3CCCCCC3)ccnc2n(C)c1=O [Example 6-28, 5-(2-(azepan-1-yl)-2-oxoethylthio)-1,3-dimethylpyrido[2,3-d]pyrimidine-2,4(1H,3H)-dione]	2380
Cn1c(=O)c2cc(S(=O)(=O)Nc3ccc(Cl)cc3F)ccc2n(C)c1=O [Example 6-23, N-(4-chloro-2-fluorophenyl)-1,3-dimethyl-2,4-dioxo-1,2,3,4-tetrahydroquinazoline-6-sulfonamide]	9700
Cc1c(F)cccc1NS(=O)(=O)c1ccc2c(c1)c(=O)n(C)c(=O)n2C [Example 6-18, N-(3-fluoro-2-methylphenyl)-1,3-dimethyl-2,4-dioxo-1,2,3,4-tetrahydroquinazoline-6-sulfonamide]	935
Cc1cc(C)c(C#N)c(NS(=O)(=O)c2ccc3c(c2)c(=O)n(C)c(=O)n3C)c1 [Example 6-17, N-(2-cyano-3,5-dimethylphenyl)-1,3-dimethyl-2,4-dioxo-1,2,3,4-tetrahydroquinazoline-6-sulfonamide]	1950
CCOC(=O)N1CCN(C(=O)CSc2nc(CC)nc3c2c(=O)n(C)c(=O)n3C)CC1 [Example 6-27, ethyl 4-(2-(2-ethyl-6,8-dimethyl-5,7-dioxo-5,6,7,8-tetrahydropyrimido[4,5-d]pyrimidin-4-ylthio)acetyl)piperazine-1-carboxylate]	763
Cc1nc(SCC(=O)N2CCOCC2)c2c(=O)n(C)c(=O)n(C)c2n1 [Example 6-25, 1,3,7-trimethyl-5-(2-morpholino-2-oxoethylthio)pyrimido[4,5-d]pyrimidine-2,4(1H,3H)-dione]	1010
COc1cc(OC)c(/C=C2\SC(=S)N(CCC(=O)O)C2=O)c(OC)c1 [Example 6-12, (Z)-3-(4-oxo-2-thioxo-5-(2,4,6-trimethoxybenzylidene)thiazolidin-3-yl)propanoic acid]	9370
N#C/C(=C\c1ccc2c(c1)OCO2)C(=O)Nc1nnc(-c2ccccc2)s1 [Example 6-14, (E)-3-(benzo[d][1,3]dioxol-5-yl)-2-cyano-N-(5-phenyl-1,3,4-thiadiazol-2-yl)acrylamide]	2910

Same assay, conditions: read-out: IC50 on hT2R14 bitter receptor

Structure (SMILES)	IC50 [nM]
O=C(O)c1ccc(CN(Cc2cccc(F)c2)S(=O)(=O)c2ccc(O)cc2)cc1 [Example 5-45, 4-((N-(3-fluorobenzyl)-4-hydroxyphenylsulfonamido)methyl)benzoic acid]	459
